Reference: ChEMBL document CHEMBL1201862, “PubChem BioAssay data set” (2004)
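1) Cells in 96-well plates. 2) Compound, 48 h, 5 concentrations. 3) Linear interpolation between surrounding doses. 4) Unreached endpoint = highest concentration. The concentration for 50% growth inhibition is given as GI50.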 Calls of active or inactive are those of the source. No stated cut-off is given here; in the data, active = GI50 up to about 1.1 µM and inactive = higher.

Tests used:
Experiment in all cases: NCI-60 cell line screen, 48 h
SW-620 = system: SW-620
HCC 2998 = system: HCC 2998
T47D = system: T47D
RPMI-8226 = system: RPMI-8226
NCI-H226 = system: NCI-H226
PC-3 = system: PC-3
OVCAR-8 = system: OVCAR-8
SF-268 = system: SF-268
UACC-62 = system: UACC-62
COLO 205 = system: COLO 205
SK-MEL-2 = system: SK-MEL-2
DU-145 = system: DU-145
786-0 = system: 786-0
HCT-116 = system: HCT-116
SNB-75 = system: SNB-75
SN12C = system: SN12C
SNB-19 = system: SNB-19
A498 = system: A498
SF-539 = system: SF-539
NCI-H23 = system: NCI-H23
LOX IMVI = system: LOX IMVI
Hs-578T = system: Hs-578T
SK-MEL-5 = system: SK-MEL-5
SR = system: SR
CAKI-1 = system: CAKI-1
IGROV-1 = system: IGROV-1
KM12 = system: KM12
SK-OV-3 = system: SK-OV-3
TK-10 = system: TK-10
SK-MEL-28 = system: SK-MEL-28
OVCAR-4 = system: OVCAR-4
Malme-3M = system: Malme-3M
MDA-N = system: MDA-N
SF-295 = system: SF-295
NCI-H460 = system: NCI-H460
A549 = system: A549
HT-29 = system: HT-29
OVCAR-5 = system: OVCAR-5
HCT-15 = system: HCT-15
HL-60 = system: HL-60
UO-31 = system: UO-31
MDA-MB-231 = system: MDA-MB-231
K562 = system: K562
HOP-62 = system: HOP-62
U-251 = system: U-251
NCI/ADR-RES = system: NCI/ADR-RES
OVCAR-3 = system: OVCAR-3
M14 = system: M14
MDA-MB-435 = system: MDA-MB-435
MCF7 = system: MCF7
EKVX = system: EKVX
CCRF-CEM = system: CCRF-CEM
MOLT-4 = system: MOLT-4
NCI-H522 = system: NCI-H522
RXF 393 = system: RXF 393
ACHN = system: ACHN
HOP-92 = system: HOP-92
UACC-257 = system: UACC-257

## c1ccc2c(c1)SCCC2NC1=NCCO1 (configuration not stated)
SW-620
  GI50: > 100 µM (inactive)
HCC 2998
  GI50: > 100 µM (inactive)
T47D
  GI50: > 100 µM (inactive)
RPMI-8226
  GI50: > 100 µM (inactive)
NCI-H226
  GI50: > 100 µM (inactive)
PC-3
  GI50: > 100 µM (inactive)
OVCAR-8
  GI50: > 100 µM (inactive)
SF-268
  GI50: > 100 µM (inactive)
UACC-62
  GI50: > 100 µM (inactive)
COLO 205
  GI50: > 100 µM (inactive)
SK-MEL-2
  GI50: > 100 µM (inactive)
DU-145
  GI50: > 100 µM (inactive)
786-0
  GI50: > 100 µM (inactive)
HCT-116
  GI50: > 100 µM (inactive)
SNB-75
  GI50: > 100 µM (inactive)
SN12C
  GI50: > 100 µM (inactive)
SNB-19
  GI50: > 100 µM (inactive)
A498
  GI50: > 100 µM (inactive)
SF-539
  GI50: > 100 µM (inactive)
NCI-H23
  GI50: > 100 µM (inactive)
LOX IMVI
  GI50: > 100 µM (inactive)
Hs-578T
  GI50: > 100 µM (inactive)
SK-MEL-5
  GI50: > 100 µM (inactive)
SR
  GI50: > 100 µM (inactive)
CAKI-1
  GI50: > 100 µM (inactive)
IGROV-1
  GI50: > 100 µM (inactive)
KM12
  GI50: > 100 µM (inactive)
SK-OV-3
  GI50: > 100 µM (inactive)
TK-10
  GI50: > 100 µM (inactive)
SK-MEL-28
  GI50: > 100 µM (inactive)
OVCAR-4
  GI50: > 100 µM (inactive)
Malme-3M
  GI50: > 100 µM (inactive)
MDA-N
  GI50: > 100 µM (inactive)
SF-295
  GI50: > 100 µM (inactive)
NCI-H460
  GI50: > 100 µM (inactive)
A549
  GI50: > 100 µM (inactive)
HT-29
  GI50: 89.5 µM (inactive)
OVCAR-5
  GI50: > 100 µM (inactive)
HCT-15
  GI50: > 100 µM
HL-60
  GI50: > 100 µM (inactive)
UO-31
  GI50: > 100 µM (inactive)
MDA-MB-231
  GI50: > 100 µM (inactive)
K562
  GI50: > 100 µM (inactive)
HOP-62
  GI50: > 100 µM (inactive)
U-251
  GI50: > 100 µM (inactive)
NCI/ADR-RES
  GI50: > 100 µM (inactive)
OVCAR-3
  GI50: > 100 µM (inactive)
M14
  GI50: > 100 µM (inactive)
MDA-MB-435
  GI50: > 100 µM (inactive)
MCF7
  GI50: > 100 µM (inactive)
EKVX
  GI50: > 100 µM (inactive)
CCRF-CEM
  GI50: > 100 µM (inactive)
MOLT-4
  GI50: > 100 µM (inactive)
NCI-H522
  GI50: > 100 µM (inactive)
RXF 393
  GI50: > 100 µM (inactive)
ACHN
  GI50: > 100 µM (inactive)

## c1ccc(COc2ccc(CC3SCCCS3)cc2)cc1
SW-620
  GI50: > 100 µM (inactive)
HCC 2998
  GI50: > 100 µM (inactive)
T47D
  GI50: 49.7 µM (inactive)
RPMI-8226
  GI50: 50.2 µM (inactive)
PC-3
  GI50: > 100 µM (inactive)
OVCAR-8
  GI50: > 100 µM (inactive)
SF-268
  GI50: > 100 µM (inactive)
UACC-62
  GI50: > 100 µM (inactive)
COLO 205
  GI50: > 100 µM (inactive)
HOP-92
  GI50: 17.8 µM (inactive)
DU-145
  GI50: > 100 µM (inactive)
HCT-116
  GI50: > 100 µM (inactive)
SNB-19
  GI50: > 100 µM (inactive)
LOX IMVI
  GI50: > 100 µM (inactive)
SK-MEL-5
  GI50: 35.2 µM (inactive)
SR
  GI50: 34.4 µM (inactive)
CAKI-1
  GI50: 62.7 µM (inactive)
IGROV-1
  GI50: 66.2 µM (inactive)
TK-10
  GI50: > 100 µM (inactive)
SK-MEL-28
  GI50: > 100 µM (inactive)
OVCAR-4
  GI50: > 100 µM (inactive)
Malme-3M
  GI50: > 100 µM (inactive)
MDA-N
  GI50: > 100 µM (inactive)
SF-295
  GI50: > 100 µM (inactive)
NCI-H460
  GI50: 65.8 µM (inactive)
UACC-257
  GI50: 21.8 µM (inactive)
A549
  GI50: > 100 µM (inactive)
HT-29
  GI50: > 100 µM (inactive)
HCT-15
  GI50: 67.3 µM
HL-60
  GI50: 23.2 µM (inactive)
MDA-MB-231
  GI50: 74.1 µM (inactive)
K562
  GI50: 52.5 µM (inactive)
HOP-62
  GI50: > 100 µM (inactive)
OVCAR-3
  GI50: > 100 µM (inactive)
M14
  GI50: > 100 µM (inactive)
MDA-MB-435
  GI50: > 100 µM (inactive)
MCF7
  GI50: > 100 µM (inactive)
EKVX
  GI50: > 100 µM (inactive)
CCRF-CEM
  GI50: 43.6 µM (inactive)
MOLT-4
  GI50: 31.8 µM (inactive)
NCI-H522
  GI50: > 100 µM (inactive)
ACHN
  GI50: > 100 µM (inactive)

## CCN(CCCl)c1cccc(NC(=O)c2ccc(C(=O)Nc3cccc(CN(C)C)c3)cc2)c1
SW-620
  GI50: 0.034 µM (active)
HCC 2998
  GI50: 0.123 µM (active)
T47D
  GI50: 0.0412 µM (active)
RPMI-8226
  GI50: 0.267 µM (active)
NCI-H226
  GI50: 0.219 µM (active)
PC-3
  GI50: 0.044 µM (active)
OVCAR-8
  GI50: 0.183 µM (active)
SF-268
  GI50: 0.0379 µM (active)
UACC-62
  GI50: 0.0785 µM (active)
COLO 205
  GI50: 0.11 µM (active)
HOP-92
  GI50: 0.144 µM (active)
SK-MEL-2
  GI50: 0.0301 µM (active)
DU-145
  GI50: 0.0432 µM (active)
786-0
  GI50: 0.0239 µM (active)
HCT-116
  GI50: 0.0611 µM (active)
SNB-75
  GI50: 0.207 µM (active)
SN12C
  GI50: 0.335 µM (active)
SNB-19
  GI50: 0.0497 µM (active)
A498
  GI50: 0.136 µM (active)
SF-539
  GI50: 0.244 µM (active)
NCI-H23
  GI50: 0.0935 µM (active)
LOX IMVI
  GI50: 0.0277 µM (active)
Hs-578T
  GI50: 0.0618 µM (active)
SK-MEL-5
  GI50: 0.0118 µM (active)
SR
  GI50: 0.037 µM (active)
CAKI-1
  GI50: 0.302 µM (active)
IGROV-1
  GI50: 0.0344 µM (active)
KM12
  GI50: 0.129 µM (active)
SK-OV-3
  GI50: 0.298 µM (active)
TK-10
  GI50: 0.372 µM (active)
SK-MEL-28
  GI50: 0.165 µM (active)
OVCAR-4
  GI50: 0.0344 µM (active)
Malme-3M
  GI50: 0.049 µM (active)
MDA-N
  GI50: 0.05 µM (active)
SF-295
  GI50: 0.125 µM (active)
NCI-H460
  GI50: 0.0537 µM (active)
UACC-257
  GI50: 0.113 µM (active)
A549
  GI50: 0.211 µM (active)
HT-29
  GI50: 0.0597 µM (active)
OVCAR-5
  GI50: 1.48 µM (inactive)
HCT-15
  GI50: 0.605 µM
HL-60
  GI50: 0.0292 µM (active)
UO-31
  GI50: 0.475 µM (active)
MDA-MB-231
  GI50: 0.195 µM (active)
K562
  GI50: 0.0422 µM (active)
HOP-62
  GI50: 0.0641 µM (active)
U-251
  GI50: 0.0349 µM (active)
NCI/ADR-RES
  GI50: 2.76 µM (inactive)
M14
  GI50: 0.204 µM (active)
MDA-MB-435
  GI50: 0.0243 µM (active)
MCF7
  GI50: 0.0215 µM (active)
CCRF-CEM
  GI50: 0.027 µM (active)
MOLT-4
  GI50: 0.0246 µM (active)
NCI-H522
  GI50: < 0.01 µM (active)
RXF 393
  GI50: < 0.01 µM (active)
ACHN
  GI50: 0.0354 µM (active)

## CC(O)(C#N)CC(O)(C(F)(F)Cl)C(F)(F)Cl (configuration not stated)
SW-620
  GI50: > 10 µM (inactive)
NCI-H226
  GI50: > 10 µM (inactive)
PC-3
  GI50: > 10 µM (inactive)
OVCAR-8
  GI50: > 10 µM (inactive)
SF-268
  GI50: > 10 µM (inactive)
COLO 205
  GI50: > 10 µM (inactive)
HOP-92
  GI50: > 10 µM (inactive)
DU-145
  GI50: > 10 µM (inactive)
HCT-116
  GI50: > 10 µM (inactive)
SNB-75
  GI50: > 10 µM (inactive)
SN12C
  GI50: > 10 µM (inactive)
SNB-19
  GI50: > 10 µM (inactive)
A498
  GI50: > 10 µM (inactive)
SF-539
  GI50: > 10 µM (inactive)
NCI-H23
  GI50: > 10 µM (inactive)
SK-MEL-5
  GI50: > 10 µM (inactive)
CAKI-1
  GI50: > 10 µM (inactive)
IGROV-1
  GI50: > 10 µM (inactive)
KM12
  GI50: > 10 µM (inactive)
TK-10
  GI50: > 10 µM (inactive)
SK-MEL-28
  GI50: > 10 µM (inactive)
OVCAR-4
  GI50: > 10 µM (inactive)
MDA-N
  GI50: > 10 µM (inactive)
SF-295
  GI50: > 10 µM (inactive)
A549
  GI50: > 10 µM (inactive)
HT-29
  GI50: > 10 µM (inactive)
OVCAR-5
  GI50: > 10 µM (inactive)
HCT-15
  GI50: > 10 µM
UO-31
  GI50: > 10 µM (inactive)
MDA-MB-231
  GI50: > 10 µM (inactive)
U-251
  GI50: > 10 µM (inactive)
NCI/ADR-RES
  GI50: > 10 µM (inactive)
OVCAR-3
  GI50: > 10 µM (inactive)
M14
  GI50: > 10 µM (inactive)
MDA-MB-435
  GI50: > 10 µM (inactive)
EKVX
  GI50: > 10 µM (inactive)
RXF 393
  GI50: > 10 µM (inactive)
ACHN
  GI50: > 10 µM (inactive)
